This passage reports IC50 results from patent US20090312288A1 (TAKEDA PHARMACEUTICAL COMPANY LIMITED, priority 2008, published 2009).

The target in this assay is Aurora B/INCENP (Homo sapiens, UniProt Q96GD4). The assay is described as follows: Determination of inhibition of AIK: Aurora B/INCENP direct fluorescence polarization (IMAP) assay. As to conditions: 10 uM ATP, 0.8 nM Aurora B/INCENP; values given as bins; read-out: IC50 of Exemplified Compounds Against AIK B. It counts as biochemical. How it is done: Detection of the reaction product is performed by addition of Progressive IMAP binding reagent (Molecular Devices). Reaction product may be determined quantitatively by FP using an Analyst HT plate reader (Molecular Devices) with an excitation wavelength at 485 nm and emission at 530 nm and using a Fluorescein 505 dichroic mirror.
Chain of Aurora B/INCENP (Q96GD4 whole entry): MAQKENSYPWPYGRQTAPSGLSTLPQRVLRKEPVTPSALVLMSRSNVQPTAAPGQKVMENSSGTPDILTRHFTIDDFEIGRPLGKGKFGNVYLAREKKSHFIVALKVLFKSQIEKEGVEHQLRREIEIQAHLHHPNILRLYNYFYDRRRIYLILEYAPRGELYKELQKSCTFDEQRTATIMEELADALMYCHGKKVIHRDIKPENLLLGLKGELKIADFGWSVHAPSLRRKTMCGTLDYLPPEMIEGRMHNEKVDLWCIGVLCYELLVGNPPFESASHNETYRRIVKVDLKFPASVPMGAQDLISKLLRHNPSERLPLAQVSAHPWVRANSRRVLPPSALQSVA
Chain of Aurora B/INCENP (Q9NQS7 whole entry partner): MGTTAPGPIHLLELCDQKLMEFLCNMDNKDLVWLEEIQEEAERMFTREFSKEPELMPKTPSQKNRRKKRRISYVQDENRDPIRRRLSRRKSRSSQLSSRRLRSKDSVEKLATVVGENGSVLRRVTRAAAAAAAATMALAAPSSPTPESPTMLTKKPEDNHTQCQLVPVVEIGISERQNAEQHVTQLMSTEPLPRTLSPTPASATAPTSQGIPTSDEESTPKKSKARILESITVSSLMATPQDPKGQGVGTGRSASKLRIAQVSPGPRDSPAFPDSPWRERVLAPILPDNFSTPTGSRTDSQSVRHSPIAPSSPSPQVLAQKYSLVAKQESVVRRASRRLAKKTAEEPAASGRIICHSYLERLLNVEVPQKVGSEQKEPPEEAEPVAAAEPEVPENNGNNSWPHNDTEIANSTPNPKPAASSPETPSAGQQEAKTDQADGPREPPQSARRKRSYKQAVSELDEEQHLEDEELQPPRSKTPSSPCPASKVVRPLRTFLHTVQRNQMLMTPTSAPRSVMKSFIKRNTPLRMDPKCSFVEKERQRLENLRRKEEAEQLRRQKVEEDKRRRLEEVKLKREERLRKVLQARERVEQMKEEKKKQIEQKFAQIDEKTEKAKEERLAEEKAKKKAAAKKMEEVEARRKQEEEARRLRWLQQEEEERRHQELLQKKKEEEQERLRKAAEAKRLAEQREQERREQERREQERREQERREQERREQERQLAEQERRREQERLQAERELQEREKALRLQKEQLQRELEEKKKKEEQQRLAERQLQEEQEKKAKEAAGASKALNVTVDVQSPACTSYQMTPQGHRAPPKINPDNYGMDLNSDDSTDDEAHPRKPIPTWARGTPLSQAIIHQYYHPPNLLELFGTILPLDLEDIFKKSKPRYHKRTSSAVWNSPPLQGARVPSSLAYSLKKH
The assay reaction may be initiated as follows: 2 ul of (3×) 300 nM Fl-Peptide/30 uM ATP was added to each well of the plate, followed by the addition of 2 ul of (3×) inhibitor (2 fold serial dilutions for 11 data points for each inhibitor) containing 15% DMSO. Two microliters of (3×) 2.4 nM AuroraB/INCENP solution may be added to initiate the reaction (final enzyme concentration was 0.8 nM for Aurora B/INCENP). The reaction mixture may then be incubated at room temperature for 45 min, and quenched and developed by addition of 20 ul of 1 to 400 diluted Progressive IMAP binding reagent in 1× proprietary Progressive IMAP binding buffer A. Fluorescence polarization readings of the resulting reaction mixtures may be measured after a 60-minute incubation at room temperature.
IC50 values may be calculated by non-linear curve fitting of the compound concentrations and fluorescent polarization values to the standard IC50 equation.
For orientation: Fluorescence polarisation rises when a labelled molecule tumbles more slowly, as on binding a larger partner.
Regarding `Cc1cnc2[nH]c3c(C)c(C(=O)NC4CCN(C)CC4)cc(-c4cccc(NC(=O)C5CC5)c4)c3c2c1` [Compound 120, 5-(3-(cyclopropanecarboxamido)phenyl)-3,8-dimethyl-N-(1-methyl-piperidin-4-yl)-9H-pyrido[2,3-b]indole-7-carboxamide], the IC50 (as a rule, the concentration that inhibits the measured activity by half) was in the range of 5.6 to 8.5 nM. For the molecule `Cc1cnc2[nH]c3c(C)c(C(=O)NCCN(C)C)cc(-c4cccc(C(=O)NC5CC5)c4)c3c2c1` [Compound 122, 5-(3-(cyclopropylcarbamoyl)phenyl)-N-(2-(dimethylamino)ethyl)-3,8-dimethyl-9H-pyrido[2,3-b]indole-7-carboxamide], the IC50 is above 13 nM. The value for `CCS(=O)(=O)c1cccc(-c2cc(C(=O)OC)cc3[nH]c4ncc(C)cc4c23)c1` [Compound 133, 5-(3-Ethanesulfonyl-phenyl)-3-methyl-9H-pyrido[2,3-b]indole-7-carboxylic acid methyl ester] was 8.6 to 13 nM; that for `CCS(=O)(=O)c1cccc(-c2cc(CO)cc3[nH]c4ncc(C)cc4c23)c1` [Compound 134, [5-(3-Ethanesulfonyl-phenyl)-3-methyl-9H-pyrido[2,3-b]indol-7-yl]-methanol] was below 4 nM. As to `CCS(=O)(=O)c1cccc(-c2cc(CN(C)C)cc3[nH]c4ncc(C)cc4c23)c1` [Compound 135, [5-(3-Ethanesulfonyl-phenyl)-3-methyl-9H-pyrido[2,3-b]indol-7-ylmethyl]-dimethyl-amine], the IC50 is above 13 nM.

Consider `CCS(=O)(=O)c1cccc(-c2cc(CN3CCOCC3)cc3[nH]c4ncc(C)cc4c23)c1` [Compound 136, 5-(3-Ethanesulfonyl-phenyl)-3-methyl-7-morpholin-4-ylmethyl-9H-pyrido[2,3-b]indole], for which the IC50 was above 13 nM. For the molecule `CCS(=O)(=O)c1cccc(-c2cc(CN3CCN(C)CC3)cc3[nH]c4ncc(C)cc4c23)c1` [Compound 137, 5-(3-Ethanesulfonyl-phenyl)-3-methyl-7-(4-methyl-piperazin-1-ylmethyl)-9H-pyrido[2,3-b]indole], the IC50 was in the range of 8.6 to 13 nM.

Regarding `CCS(=O)(=O)c1cccc(-c2cc(CN3CCCC3)cc3[nH]c4ncc(C)cc4c23)c1` [Compound 138, 5-(3-Ethanesulfonyl-phenyl)-3-methyl-7-pyrrolidin-1-ylmethyl-9H-pyrido[2,3-b]indole], the IC50 is above 13 nM. The figure for `CCNCc1cc(-c2cccc(S(=O)(=O)CC)c2)c2c(c1)[nH]c1ncc(C)cc12` [Compound 139, [5-(3-Ethanesulfonyl-phenyl)-3-methyl-9H-pyrido[2,3-b]indol-7-ylmethyl]-ethyl-amine] is above 13 nM; for `CCS(=O)(=O)c1cccc(-c2cc(C(=O)O)cc3[nH]c4ncc(C)cc4c23)c1` [Compound 140, 5-(3-Ethanesulfonyl-phenyl)-3-methyl-9H-pyrido[2,3-b]indole-7-carboxylic acid] it is 4 to 5.5 nM; for `CCS(=O)(=O)c1cccc(-c2cc(C(=O)N3CCN(C)CC3)cc3[nH]c4ncc(C)cc4c23)c1` [Compound 141, [5-(3-Ethanesulfonyl-phenyl)-3-methyl-9H-pyrido[2,3-b]indol-7-yl]-(4-methyl-piperazin-1-yl)-methanone] it is above 13 nM.

In the case of `CCS(=O)(=O)c1cccc(-c2cc(C(=O)NCCN(C)C)cc3[nH]c4ncc(C)cc4c23)c1` [Compound 142, 5-(3-Ethanesulfonyl-phenyl)-3-methyl-9H-pyrido[2,3-b]indole-7-carboxylic acid (2-dimethylamino-ethyl)-amide], the IC50 was in the range of 5.6 to 8.5 nM. For `CCS(=O)(=O)c1cccc(-c2cc(C(=O)NCCCN(C)C)cc3[nH]c4ncc(C)cc4c23)c1` [Compound 143, 5-(3-Ethanesulfonyl-phenyl)-3-methyl-9H-pyrido[2,3-b]indole-7-carboxylic acid (3-dimethylamino-propyl)-amide], the IC50 is above 13 nM. Consider `CCS(=O)(=O)c1cccc(-c2cc(C(=O)N3CCC(N(C)C)C3)cc3[nH]c4ncc(C)cc4c23)c1` (centres unmarked) [Compound 145, (3-Dimethylamino-pyrrolidin-1-yl)-[5-(3-ethanesulfonyl-phenyl)-3-methyl-9H-pyrido[2,3-b]indol-7-yl]-methanone], for which the IC50 was above 13 nM. The figure for `CCNC(=O)c1cc(-c2cccc(S(=O)(=O)CC)c2)c2c(c1)[nH]c1ncc(C)cc12` [Compound 146, N-ethyl-5-(3-(ethylsulfonyl)phenyl)-3-methyl-9H-pyrido[2,3-b]indole-7-carboxamide] is 5.6 to 8.5 nM. For `CCS(=O)(=O)c1cccc(-c2c(Br)c(C(=O)OC)cc3[nH]c4ncc(C)cc4c23)c1` [Compound 147, 6-Bromo-5-(3-ethanesulfonyl-phenyl)-3-methyl-9H-pyrido[2,3-b]indole-7-carboxylic acid methyl ester], the IC50 is above 13 nM.

Regarding `CCS(=O)(=O)c1cccc(-c2cc(C(=O)OC)c(Br)c3[nH]c4ncc(C)cc4c23)c1` [Compound 148, 8-Bromo-5-(3-ethanesulfonyl-phenyl)-3-methyl-9H-pyrido[2,3-b]indole-7-carboxylic acid methyl ester], the IC50 was in the range of 4 to 5.5 nM. As for `CCS(=O)(=O)c1cccc(-c2c(Cl)c(C(=O)OC)cc3[nH]c4ncc(C)cc4c23)c1` [Compound 149, 6-Chloro-5-(3-ethanesulfonyl-phenyl)-3-methyl-9H-pyrido[2,3-b]indole-7-carboxylic acid methyl ester], the IC50 was above 13 nM. The figure for `CCS(=O)(=O)c1cccc(-c2cc(C(=O)OC)c(Cl)c3[nH]c4ncc(C)cc4c23)c1` [Compound 150, 8-Chloro-5-(3-ethanesulfonyl-phenyl)-3-methyl-9H-pyrido[2,3-b]indole-7-carboxylic acid methyl ester] is 4 to 5.5 nM; for `Cc1cnc2[nH]c3cc(C(=O)O)cc(SCc4ccccc4)c3c2c1` [Compound 151, 5-(benzylthio)-3-methyl-9H-pyrido[2,3-b]indole-7-carboxylic acid] it is above 13 nM; for `Cc1cnc2[nH]c3cc(C(=O)NCCN(C)C)cc(SCc4ccccc4)c3c2c1` [Compound 152, 5-(benzylthio)-N-(2-(dimethylamino)ethyl)-3-methyl-9H-pyrido[2,3-b]indole-7-carboxamide] it is above 13 nM. The figure for `CCNS(=O)(=O)c1cccc(-c2cc(C(=O)NC3CCN(C)CC3)c(C)c3[nH]c4ncc(C)cc4c23)c1` [Compound 153] is above 13 nM; for `Cc1cnc2[nH]c3c(C)c(C(=O)NC4CCN(C)CC4)cc(-c4cccc(S(=O)(=O)C5CC5)c4)c3c2c1` [Compound 154, 5-(3-(cyclopropylsulfonyl)phenyl)-3,8-dimethyl-N-(1-methylpiperidin-4-yl)-9H-pyrido[2,3-b]indole-7-carboxamide] it is 8.6 to 13 nM; for `CCS(=O)(=O)c1cccc(-c2ccc(O)c3[nH]c4ncc(C)cc4c23)c1` [Compound 158, 5-(3-(ethylsulfonyl)phenyl)-3-methyl-9H-pyrido[2,3-b]indol-8-ol] it is below 4 nM. The value for `COc1ccc(-c2cccc(S(=O)(=O)N3CCCC3)c2)c2c1[nH]c1ncc(C)cc12` [Compound 159, 8-methoxy-3-methyl-5-(3-(pyrrolidin-1-ylsulfonyl)phenyl)-9H-pyrido[2,3-b]indole] was 8.6 to 13 nM; that for `COc1ccc(-c2cccc(S(=O)(=O)[C@@H]3CCNC3)c2)c2c1[nH]c1ncc(C)cc12` [Compound 160, (R)-8-methoxy-3-methyl-5-(3-(pyrrolidin-3-ylsulfonyl)phenyl)-9H-pyrido[2,3-b]indole] was 5.6 to 8.5 nM.
